Data from US20060264455A1 (priority 2005, published 2006).
Several values for one entry are separate records, joined by “and”; a condition that tells them apart may be missing. Equal values may be shown once. Read-outs that look alike come from different tables or passages of the source.

Columns and labels:
[1] = system: formalin-induced paw-licking; assay: Formalin test (paw licking/biting) in mice; type: in vivo; conditions: for Duration of Licking: Trial 1, one value per animal #01-08; for activity at 0.5 mg/kg / activity at 1 mg/kg: Mus musculus, ip, read-out: Area Under the Curve, % of Control
Procedure: The formalin test for antinociceptive activity is described in numerous publications, e.g., Hunskaar, S., O. B. Fasmer, and K. Hole, J. Neurosci. […] The formalin test is accepted as an art recognized model of persistent clinical pain.
Male Swiss Webster NIH mice (20-30 g; Harlan, San Diego, Calif.) were used in the experiments described herein. Food was withdrawn on the day of experiment. Mice were placed in Plexiglass jars for at least 1 hour to accommodate to the environment. Following the accommodation period, mice were weighed and given either a huperzine compound administered intraperitoneal (i.p.) or oral (p.o.), or the appropriate volume of vehicle (10% Tween-80). Fifteen minutes after the i.p. dosing, and 30 minutes after the p.o. dosing mice were injected with formalin (20 μL of 5% formaldehyde solution in saline) into the dorsal surface of the right hind paw. Mice were transferred to the Plexiglass jars and monitored for the amount of time spent licking or biting the injected paw. Periods of licking and biting were recorded in 5 minute intervals for 40 minutes after the formalin injection. All experiments were done in a blinded manner. The early phase (acute) of the formalin response is measured as licking/biting between 0-5 minutes, and the late phase (inflammatory) is measured from 10-40 minutes. Differences between vehicle and drug treated groups are analyzed by one-way analysis of variance (ANOVA). A P value<0.05 is considered significant.
Fifteen minutes after the i.p. dosing, mice were injected with formalin (20 μL of 5% formaldehyde solution in saline) into the dorsal surface of the right hind paw. Periods of licking and biting were recorded in 5 minute intervals for 40 minutes after the formalin injection as shown below in Tables 1 and 2. All experiments were done according to the art-recognized Anticonvulsant Screening Program of the NINDS at the University of Utah.
Duration of paw licking in the tables below is expressed in seconds.

[2] = system: minimal motor impairment (ataxia, abnormal gait and stance); assay: Toxicity (TOX) / minimal motor impairment, rats; conditions: oral, 1 mg/kg
[3] = system: subcutaneous Metrazol (pentylenetetrazol) seizures; conditions: i.p.
Procedure: Male, 18-25 g CFI mice and 100-125 g Sprague-Dawley rats (Charles River Laboratories, Wilmington, Mass.) were used as the experimental animals. Animals were pretreated intraperitoneally (i.p.) with increasing doses of HupA and tested at various times after administration for protection against tonic extension (MES test), minimal clonic (s.c. PTZ test), limbic (6 Hz), or secondarily generalized (kindled rat) seizures. Seizure testing was carried out as follows. For the MES and 6 Hz tests, a drop of anesthetic/electrolyte solution (0.5% tetracaine hydrochloride in 0.9% saline) was applied to the eyes of each animal prior to placement of the corneal electrodes. […] The ability of the test substance to prevent seizures induced by 6 Hz corneal stimulation (32 mA, 3 sec duration) was assessed at various times after i.p. administration of 1 mg/kg HupA For assessment of hippocampal kindling, HupA (1 mg/kg, i.p.) was administered.

[4] = 0.5 mg/kg i.p., Inflammatory phase
[5] = 1 mg/kg i.p., Inflammatory phase

## C/C=C1\[C@H]2C=C(C)C[C@]1(N)c1ccc(=O)[nH]c1C2 [Huperzine A]
[1]; 0.5 mg/kg i.p.
  Time spent licking: impressive reduction in the time spent licking
[1]; 0.5 mg/kg i.p., 0 min
  Duration of Licking: 10.00 sec and 0.00 sec and 3.00 sec and 1.00 sec (4×) and 2.00 sec
[1]; 0.5 mg/kg i.p., 5 min
  Duration of Licking: 0.00 s
[1]; 0.5 mg/kg i.p., 10 min
  Duration of Licking: 0.00 s
[1]; 0.5 mg/kg i.p., 15 min
  Duration of Licking: 0.00 s
[1]; 0.5 mg/kg i.p., 20 min
  Duration of Licking: 0.00 s
[1]; 0.5 mg/kg i.p., 25 min
  Duration of Licking: 0.00 s
[1]; 0.5 mg/kg i.p., 30 min
  Duration of Licking: 0.00 s
[1]; 0.5 mg/kg i.p., 35 min
  Duration of Licking: 0.00 s
[1]; 0.5 mg/kg i.p., 40 min
  Duration of Licking: 0.00 s
[1]; 0.5 mg/kg i.p., Acute phase
  Area Under the Curve, Drug Tested: 7.3
  activity at 0.5 mg/kg: 2.8%
[1]; [4]
  Area Under the Curve, Drug Tested: 0.0
  activity at 0.5 mg/kg: 0%
[1]; 1 mg/kg i.p., mice
  Inhibition of phase 1 (acute) and phase 2 (inflammatory) pain response: complete inhibition
[1]; 1 mg/kg i.p., Acute phase
  Area Under the Curve, Drug Treated: 0.0
  activity at 1 mg/kg: 0%
[1]; [5]
  Area Under the Curve, Drug Treated: 0.0
  activity at 1 mg/kg: 0%
[2]
  Toxicity: no toxicity in any of the animals
[3]; 1 mg/kg SOL, 0.5 h
  N/F (mice showing an effect / mice tested), SCMET: 3/5
[3]; 1 mg/kg SOL, 4.0 h
  N/F (mice showing an effect / mice tested), SCMET: 0/1
[3]; 3 mg/kg SUS, 0.5 h
  N/F (mice showing an effect / mice tested), SCMET: 1/1
[3]; 3 mg/kg SUS, 4.0 h
  N/F (mice showing an effect / mice tested), SCMET: 0/1
[3]; 10 mg/kg SUS, 0.5 h
  N/F (mice showing an effect / mice tested), SCMET: 0/1
[3]; 10 mg/kg SUS, 4.0 h
  N/F (mice showing an effect / mice tested), SCMET: 1/1
[3]; scPTZ, Mouse, 1 mg/kg, time of test 2 h
  Maximum Protection Observed: 25%
